Tests used:
[1] = biological target: T1, Type-1 angiotensin II receptor (Homo sapiens, UniProt P30556)
T1 sequence (P30556 whole entry): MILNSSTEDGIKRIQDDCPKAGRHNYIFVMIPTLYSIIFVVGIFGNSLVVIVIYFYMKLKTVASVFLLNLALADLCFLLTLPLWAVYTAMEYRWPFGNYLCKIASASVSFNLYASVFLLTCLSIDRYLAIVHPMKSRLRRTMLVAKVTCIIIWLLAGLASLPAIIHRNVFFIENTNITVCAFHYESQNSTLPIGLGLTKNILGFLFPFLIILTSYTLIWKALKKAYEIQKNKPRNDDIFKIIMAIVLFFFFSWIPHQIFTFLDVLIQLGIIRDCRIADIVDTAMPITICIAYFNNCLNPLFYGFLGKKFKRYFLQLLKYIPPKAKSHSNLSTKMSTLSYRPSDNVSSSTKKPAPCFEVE

[2] = biological target: 3',5'-cyclic-AMP phosphodiesterase 4D (Homo sapiens, UniProt Q08499); type: functional
[3] = biological target: Gamma-aminobutyric acid receptor subunit alpha-1 (Rattus norvegicus, UniProt P62813); type: functional
Sequence of Gamma-aminobutyric acid receptor subunit alpha-1 (P62813 whole entry): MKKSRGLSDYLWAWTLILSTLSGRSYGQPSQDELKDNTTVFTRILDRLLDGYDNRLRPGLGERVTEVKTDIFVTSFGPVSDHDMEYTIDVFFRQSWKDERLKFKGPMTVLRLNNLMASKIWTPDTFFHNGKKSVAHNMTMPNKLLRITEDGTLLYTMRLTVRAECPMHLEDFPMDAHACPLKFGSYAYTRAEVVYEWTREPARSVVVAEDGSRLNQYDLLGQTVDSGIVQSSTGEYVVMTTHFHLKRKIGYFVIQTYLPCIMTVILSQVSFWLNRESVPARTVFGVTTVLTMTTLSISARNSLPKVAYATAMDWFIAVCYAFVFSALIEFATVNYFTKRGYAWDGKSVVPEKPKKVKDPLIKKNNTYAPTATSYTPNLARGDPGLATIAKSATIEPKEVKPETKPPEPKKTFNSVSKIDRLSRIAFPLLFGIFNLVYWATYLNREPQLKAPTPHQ

Histamine H2 receptor = Histamine H2 receptor (Homo sapiens, UniProt P25021); type: functional, cell-based
[4] = biological target: Beta-1 adrenergic receptor (Homo sapiens, UniProt P08588); type: functional
D(3) dopamine receptor = D(3) dopamine receptor (Homo sapiens, UniProt P35462)
Sequence of D(3) dopamine receptor (P35462 whole entry): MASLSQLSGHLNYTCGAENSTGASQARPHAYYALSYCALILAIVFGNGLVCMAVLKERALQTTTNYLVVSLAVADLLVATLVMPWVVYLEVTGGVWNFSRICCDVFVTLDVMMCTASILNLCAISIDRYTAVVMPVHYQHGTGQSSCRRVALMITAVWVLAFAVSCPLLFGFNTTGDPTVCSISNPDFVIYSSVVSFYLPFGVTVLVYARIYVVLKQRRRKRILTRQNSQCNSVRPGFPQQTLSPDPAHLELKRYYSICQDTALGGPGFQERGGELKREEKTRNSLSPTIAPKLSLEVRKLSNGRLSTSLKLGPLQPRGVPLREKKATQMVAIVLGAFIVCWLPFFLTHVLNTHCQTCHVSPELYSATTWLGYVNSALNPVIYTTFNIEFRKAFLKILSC

[5] = biological target: T2, Prostaglandin G/H synthase 1 (Rattus norvegicus, UniProt Q63921); type: functional
T2 sequence (Q63921 whole entry): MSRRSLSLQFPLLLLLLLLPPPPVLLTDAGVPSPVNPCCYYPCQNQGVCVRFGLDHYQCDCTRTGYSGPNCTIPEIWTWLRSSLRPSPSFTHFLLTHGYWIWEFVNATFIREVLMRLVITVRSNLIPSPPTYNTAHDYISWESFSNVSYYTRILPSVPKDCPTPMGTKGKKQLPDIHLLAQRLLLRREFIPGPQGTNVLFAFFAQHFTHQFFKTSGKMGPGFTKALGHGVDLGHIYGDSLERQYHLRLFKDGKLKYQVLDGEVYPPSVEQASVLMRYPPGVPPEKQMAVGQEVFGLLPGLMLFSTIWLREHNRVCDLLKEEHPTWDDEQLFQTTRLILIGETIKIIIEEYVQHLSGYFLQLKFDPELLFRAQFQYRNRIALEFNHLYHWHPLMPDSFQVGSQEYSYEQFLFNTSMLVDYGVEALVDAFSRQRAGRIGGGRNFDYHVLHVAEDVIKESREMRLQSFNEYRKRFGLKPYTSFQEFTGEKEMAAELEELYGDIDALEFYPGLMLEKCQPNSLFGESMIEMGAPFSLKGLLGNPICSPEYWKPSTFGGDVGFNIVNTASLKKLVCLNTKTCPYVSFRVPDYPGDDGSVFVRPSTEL

[6] = biological target: Beta-2 adrenergic receptor (Homo sapiens, UniProt P07550)
[7] = biological target: Sodium-dependent noradrenaline transporter (Homo sapiens, UniProt P23975)
Sequence of Sodium-dependent noradrenaline transporter (P23975 whole entry): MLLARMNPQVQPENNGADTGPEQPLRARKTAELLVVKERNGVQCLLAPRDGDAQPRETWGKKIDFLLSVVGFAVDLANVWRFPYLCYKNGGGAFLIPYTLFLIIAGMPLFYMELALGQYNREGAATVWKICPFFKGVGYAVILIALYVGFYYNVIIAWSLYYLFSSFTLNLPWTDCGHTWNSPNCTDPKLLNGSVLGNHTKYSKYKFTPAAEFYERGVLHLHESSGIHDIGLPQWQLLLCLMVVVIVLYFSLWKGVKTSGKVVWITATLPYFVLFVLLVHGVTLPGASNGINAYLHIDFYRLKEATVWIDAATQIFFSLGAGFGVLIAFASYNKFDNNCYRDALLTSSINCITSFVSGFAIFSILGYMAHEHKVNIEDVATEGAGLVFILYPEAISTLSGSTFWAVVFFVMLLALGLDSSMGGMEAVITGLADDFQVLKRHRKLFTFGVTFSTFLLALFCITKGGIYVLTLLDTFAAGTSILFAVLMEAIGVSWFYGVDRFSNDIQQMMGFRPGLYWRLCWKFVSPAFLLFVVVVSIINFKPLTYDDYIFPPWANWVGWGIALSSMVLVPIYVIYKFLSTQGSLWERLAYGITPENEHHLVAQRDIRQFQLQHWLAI

Vasopressin V2 receptor = Vasopressin V2 receptor (Homo sapiens, UniProt P30518)
[8] = biological target: Kappa-type opioid receptor (Homo sapiens, UniProt P41145)
Sequence of Kappa-type opioid receptor (P41145 whole entry): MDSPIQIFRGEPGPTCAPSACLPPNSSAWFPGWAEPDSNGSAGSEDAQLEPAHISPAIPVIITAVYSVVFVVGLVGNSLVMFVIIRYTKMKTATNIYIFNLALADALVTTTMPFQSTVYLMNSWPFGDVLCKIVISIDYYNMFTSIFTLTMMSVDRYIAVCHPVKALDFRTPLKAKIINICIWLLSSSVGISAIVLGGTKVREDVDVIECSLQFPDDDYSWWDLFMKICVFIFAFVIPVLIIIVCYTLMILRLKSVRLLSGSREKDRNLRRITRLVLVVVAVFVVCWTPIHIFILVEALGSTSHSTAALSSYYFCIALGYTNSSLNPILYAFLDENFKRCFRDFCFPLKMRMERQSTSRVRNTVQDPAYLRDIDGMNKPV

[9] = biological target: T3, 5-hydroxytryptamine receptor 2C (Homo sapiens, UniProt P28335)
T3 sequence (P28335 whole entry): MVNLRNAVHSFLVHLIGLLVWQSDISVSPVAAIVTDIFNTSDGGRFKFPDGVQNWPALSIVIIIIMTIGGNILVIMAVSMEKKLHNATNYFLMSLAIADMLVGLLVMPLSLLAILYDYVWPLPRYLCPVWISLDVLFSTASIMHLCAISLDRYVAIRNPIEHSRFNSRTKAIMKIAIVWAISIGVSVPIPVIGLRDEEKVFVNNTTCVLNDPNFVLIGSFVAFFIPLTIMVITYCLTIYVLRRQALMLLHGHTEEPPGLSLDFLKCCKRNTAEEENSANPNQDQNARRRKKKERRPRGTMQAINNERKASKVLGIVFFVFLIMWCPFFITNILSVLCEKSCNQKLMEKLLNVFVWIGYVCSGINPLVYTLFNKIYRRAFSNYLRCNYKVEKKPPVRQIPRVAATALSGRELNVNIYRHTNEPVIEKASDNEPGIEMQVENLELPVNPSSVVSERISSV

Motilin receptor = Motilin receptor (Homo sapiens, UniProt O43193)
Sequence of Motilin receptor (O43193 whole entry): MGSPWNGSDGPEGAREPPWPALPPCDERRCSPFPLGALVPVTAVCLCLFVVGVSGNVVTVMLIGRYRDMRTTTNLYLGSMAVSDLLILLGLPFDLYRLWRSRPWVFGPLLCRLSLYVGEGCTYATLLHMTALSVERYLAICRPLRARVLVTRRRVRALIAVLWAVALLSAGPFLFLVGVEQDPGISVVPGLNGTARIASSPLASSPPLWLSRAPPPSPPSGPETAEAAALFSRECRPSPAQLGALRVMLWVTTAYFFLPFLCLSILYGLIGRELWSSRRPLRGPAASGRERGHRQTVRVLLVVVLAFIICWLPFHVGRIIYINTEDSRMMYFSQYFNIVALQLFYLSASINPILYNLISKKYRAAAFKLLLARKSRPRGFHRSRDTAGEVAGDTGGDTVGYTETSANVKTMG

[10] = biological target: Delta-type opioid receptor (Homo sapiens, UniProt P41143)
Sequence of Delta-type opioid receptor (P41143 whole entry): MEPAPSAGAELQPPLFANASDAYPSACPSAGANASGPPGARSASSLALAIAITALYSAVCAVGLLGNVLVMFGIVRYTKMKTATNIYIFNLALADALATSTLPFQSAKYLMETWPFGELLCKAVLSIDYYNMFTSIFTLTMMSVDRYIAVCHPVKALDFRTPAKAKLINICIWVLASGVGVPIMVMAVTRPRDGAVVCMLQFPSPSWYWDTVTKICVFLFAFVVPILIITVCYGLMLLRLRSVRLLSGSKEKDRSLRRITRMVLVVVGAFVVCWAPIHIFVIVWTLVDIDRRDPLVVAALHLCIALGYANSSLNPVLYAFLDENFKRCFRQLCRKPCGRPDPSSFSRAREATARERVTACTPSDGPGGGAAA

[11] = biological target: Voltage-dependent L-type calcium channel subunit alpha-1C (Rattus norvegicus, UniProt P22002); type: functional
Sequence of Voltage-dependent L-type calcium channel subunit alpha-1C (P22002 whole entry): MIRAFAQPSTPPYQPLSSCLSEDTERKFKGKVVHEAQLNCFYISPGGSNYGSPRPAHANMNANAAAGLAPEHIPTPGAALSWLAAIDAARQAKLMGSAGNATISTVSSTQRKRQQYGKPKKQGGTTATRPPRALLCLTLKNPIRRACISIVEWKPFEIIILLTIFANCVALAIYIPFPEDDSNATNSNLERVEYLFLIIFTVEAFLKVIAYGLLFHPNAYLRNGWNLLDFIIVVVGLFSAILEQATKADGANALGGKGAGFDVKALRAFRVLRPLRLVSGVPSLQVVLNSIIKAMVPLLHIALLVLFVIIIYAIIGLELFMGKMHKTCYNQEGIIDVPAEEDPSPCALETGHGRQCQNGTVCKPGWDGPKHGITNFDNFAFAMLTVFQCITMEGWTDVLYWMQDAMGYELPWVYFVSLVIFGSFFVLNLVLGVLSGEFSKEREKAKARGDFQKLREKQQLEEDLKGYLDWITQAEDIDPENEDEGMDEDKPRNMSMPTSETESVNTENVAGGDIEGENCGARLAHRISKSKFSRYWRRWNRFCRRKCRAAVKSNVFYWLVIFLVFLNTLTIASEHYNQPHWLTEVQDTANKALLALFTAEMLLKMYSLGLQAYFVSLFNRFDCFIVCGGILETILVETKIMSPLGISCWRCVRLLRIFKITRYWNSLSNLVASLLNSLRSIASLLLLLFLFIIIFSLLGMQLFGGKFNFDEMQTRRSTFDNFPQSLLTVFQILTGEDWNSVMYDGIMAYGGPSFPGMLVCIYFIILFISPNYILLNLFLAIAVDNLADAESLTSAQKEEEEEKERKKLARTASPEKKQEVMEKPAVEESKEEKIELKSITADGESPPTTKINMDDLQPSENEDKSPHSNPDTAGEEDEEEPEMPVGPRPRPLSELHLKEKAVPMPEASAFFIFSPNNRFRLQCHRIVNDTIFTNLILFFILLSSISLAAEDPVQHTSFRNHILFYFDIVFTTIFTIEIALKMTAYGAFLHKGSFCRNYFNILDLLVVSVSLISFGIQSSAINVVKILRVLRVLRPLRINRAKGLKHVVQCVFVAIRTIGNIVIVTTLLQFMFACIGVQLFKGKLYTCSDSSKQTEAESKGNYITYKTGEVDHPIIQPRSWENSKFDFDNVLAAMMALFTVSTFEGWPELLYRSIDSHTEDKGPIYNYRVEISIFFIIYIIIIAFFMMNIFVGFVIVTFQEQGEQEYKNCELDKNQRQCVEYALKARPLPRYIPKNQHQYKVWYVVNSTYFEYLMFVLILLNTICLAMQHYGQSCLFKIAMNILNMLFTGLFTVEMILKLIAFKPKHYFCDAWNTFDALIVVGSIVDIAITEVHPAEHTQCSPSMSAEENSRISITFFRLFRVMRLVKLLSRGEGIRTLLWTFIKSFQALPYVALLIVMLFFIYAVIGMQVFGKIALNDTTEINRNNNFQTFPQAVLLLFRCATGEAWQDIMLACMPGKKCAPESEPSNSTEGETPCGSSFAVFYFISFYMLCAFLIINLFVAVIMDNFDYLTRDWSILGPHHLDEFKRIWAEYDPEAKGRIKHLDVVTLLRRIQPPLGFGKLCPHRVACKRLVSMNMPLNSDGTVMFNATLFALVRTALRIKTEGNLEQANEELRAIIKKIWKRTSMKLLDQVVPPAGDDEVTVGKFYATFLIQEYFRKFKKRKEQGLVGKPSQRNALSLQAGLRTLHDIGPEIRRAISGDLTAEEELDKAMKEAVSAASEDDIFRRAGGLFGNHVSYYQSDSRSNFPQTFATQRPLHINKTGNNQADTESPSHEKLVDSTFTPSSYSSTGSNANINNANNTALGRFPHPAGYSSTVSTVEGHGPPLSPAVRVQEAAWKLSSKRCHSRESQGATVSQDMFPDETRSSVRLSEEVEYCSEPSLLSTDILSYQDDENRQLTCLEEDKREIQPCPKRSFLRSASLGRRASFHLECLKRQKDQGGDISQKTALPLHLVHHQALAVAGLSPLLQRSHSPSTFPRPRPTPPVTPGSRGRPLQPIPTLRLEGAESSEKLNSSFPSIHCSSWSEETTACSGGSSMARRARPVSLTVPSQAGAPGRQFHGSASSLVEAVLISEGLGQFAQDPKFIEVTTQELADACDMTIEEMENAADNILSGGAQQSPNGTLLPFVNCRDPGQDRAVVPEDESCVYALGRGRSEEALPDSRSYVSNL
Also: assay procedure not described here.

SMILES | AC50 [1] | AC50 [2] | AC50 [3] | AC50 (Histamine H2 receptor) | AC50 [4] | AC50 (D(3) dopamine receptor) | AC50 [5] | AC50 [6] | AC50 [7] | AC50 (Vasopressin V2 receptor) | AC50 [8] | AC50 [9] | AC50 (Motilin receptor) | AC50 [10] | AC50 [11]
CC(=O)OCC(=O)[C@@]12OC3(CCCC3)O[C@@H]1C[C@H]1[C@@H]3CCC4=CC(=O)C=C[C@]4(C)[C@@]3(F)[C@@H](O)C[C@@]12C [AMCINONIDE] | > 10 µM | > 30 µM | > 10 µM | > 10 µM | > 10 µM | > 30 µM | > 10 µM | > 10 µM | > 10 µM | > 10 µM | > 10 µM | > 30 µM | > 10 µM | > 30 µM | > 10 µM
CCNC(C)Cc1cccc(C(F)(F)F)c1 (stereo unspecified) [FENFLURAMINE] | > 30 µM | > 30 µM | > 10 µM |  |  | 8 µM | > 30 µM |  |  | > 30 µM | 13.4 µM |  | > 10 µM | > 30 µM | > 10 µM
COc1ccccc1OCC(O)COC(N)=O (stereo unspecified) [METHOCARBAMOL] | > 30 µM | > 30 µM | > 10 µM | > 10 µM | > 10 µM | > 30 µM | > 10 µM | > 10 µM | > 10 µM | > 10 µM | > 10 µM | > 30 µM | > 10 µM | > 30 µM | > 10 µM
C#CC1(OC(N)=O)CCCCC1 [ETHINAMATE] | > 30 µM | > 30 µM | > 10 µM | > 10 µM | > 10 µM | > 30 µM | > 10 µM | > 10 µM | > 10 µM | > 10 µM | > 10 µM | > 30 µM | > 10 µM | > 30 µM | > 10 µM
CC1=CC(=O)c2ccccc2C1=O [MENADIONE] | > 10 µM | > 30 µM | > 10 µM | > 30 µM | > 10 µM | > 30 µM | > 10 µM | > 10 µM | > 10 µM | > 10 µM | > 10 µM | > 30 µM | > 10 µM | > 30 µM | > 10 µM
O=C(CCCCC(=O)Nc1c(I)cc(I)c(C(=O)O)c1I)Nc1c(I)cc(I)c(C(=O)O)c1I [IODIPAMIDE] | > 10 µM | > 30 µM | > 10 µM | > 30 µM | > 10 µM | > 30 µM | > 10 µM | > 10 µM | > 10 µM | > 10 µM | > 10 µM | > 30 µM | > 10 µM | > 30 µM | > 10 µM
C#CCN[C@@H]1CCc2ccccc21 [RASAGILINE] | > 30 µM | > 30 µM | > 30 µM | > 30 µM | > 30 µM | > 30 µM | > 30 µM | > 30 µM | > 30 µM | > 30 µM | > 30 µM | > 30 µM | > 30 µM | > 30 µM | > 30 µM
CC(=O)O[C@@]12CO[C@@H]1C[C@H](O)[C@@]1(C)C(=O)[C@H](O)C3=C(C)[C@@H](OC(=O)[C@H](O)[C@@H](NC(=O)OC(C)(C)C)c4ccccc4)C[C@@](O)([C@@H](OC(=O)c4ccccc4)[C@H]21)C3(C)C [DOCETAXEL ANHYDROUS] | > 30 µM | > 30 µM | > 30 µM | > 30 µM | > 30 µM | > 30 µM | > 30 µM | > 30 µM | > 30 µM | > 30 µM | > 30 µM | > 30 µM | > 30 µM | > 30 µM | > 30 µM
CN[C@@H]1[C@H](O)[C@H](NC)[C@H]2O[C@@]3(O)C(=O)C[C@@H](C)O[C@H]3O[C@@H]2[C@H]1O [SPECTINOMYCIN] | > 10 µM | > 30 µM | > 10 µM | > 10 µM | > 10 µM | > 30 µM | > 10 µM | > 10 µM | > 10 µM | > 10 µM | > 10 µM | > 30 µM | > 10 µM | > 30 µM | > 10 µM
Cc1c(C(=O)Nc2ccc(N3C[C@@H](C)O[C@@H](C)C3)nc2)cccc1-c1ccc(OC(F)(F)F)cc1 [SONIDEGIB] | > 30 µM | > 30 µM | > 10 µM |  | > 10 µM |  | > 30 µM | > 10 µM | > 10 µM | > 30 µM | > 10 µM | > 30 µM | > 10 µM | > 10 µM | > 10 µM
COc1c(N2CCNC(C)C2)c(F)cc2c(=O)c(C(=O)O)cn(C3CC3)c12 (stereo unspecified) [GATIFLOXACIN] | > 10 µM | > 30 µM | > 10 µM | > 30 µM | > 10 µM | > 30 µM | > 10 µM | > 10 µM | > 10 µM | > 10 µM | > 10 µM | > 30 µM | > 10 µM | > 30 µM | > 10 µM
CN1C(=O)CC(=O)N(c2ccccc2)c2cc(Cl)ccc21 [CLOBAZAM] | > 10 µM | 10 µM | 0.3 µM | > 10 µM | > 10 µM | > 30 µM | > 10 µM | > 10 µM | > 10 µM | > 10 µM | 14.1 µM | > 30 µM | > 10 µM | > 30 µM | > 10 µM
CN1CCC2=C(C1)C(c1ccccc1)c1ccccc12 (stereo unspecified) [PHENINDAMINE] | > 10 µM | 8.7 µM | > 10 µM | > 10 µM | > 10 µM | > 30 µM | 0.771 µM | > 10 µM | > 30 µM | > 10 µM | > 10 µM | > 30 µM | > 10 µM | > 30 µM | > 10 µM
CN1CCCN=C1COC(=O)C(O)(c1ccccc1)C1CCCCC1 (stereo unspecified) [OXYPHENCYCLIMINE] | > 10 µM | > 30 µM | > 10 µM | > 10 µM | > 10 µM | > 30 µM | > 10 µM | > 10 µM | > 30 µM | > 10 µM | > 10 µM | > 30 µM | > 10 µM | > 30 µM | > 10 µM
CCCCN1CCCCC1C(=O)Nc1c(C)cccc1C (stereo unspecified) [BUPIVACAINE] | > 30 µM | > 30 µM | > 30 µM | > 30 µM | > 30 µM | > 30 µM | > 30 µM |  |  | > 30 µM | > 30 µM | > 30 µM | > 30 µM | > 30 µM | > 30 µM

Source: ChEMBL document CHEMBL5291721, “A preclinical secondary pharmacology resource illuminates target-adverse drug reaction associations of marketed drugs” (Nat Commun, 2023)
